Laboratory results: US11472803B2, “7-substituted 1-aryl-naphthyridine-3-carboxylic acid amides and use thereof” (Bayer Aktiengesellschaft, priority 2016, dated 2022)

Target: T1, human M2 receptor (Homo sapiens, UniProt P08172)
T1 construct: expressed in transfected cells; host or cells: CHO-DUKX (CHO-DUKX-M2-GIRK)
T1 sequence (P08172 1-466): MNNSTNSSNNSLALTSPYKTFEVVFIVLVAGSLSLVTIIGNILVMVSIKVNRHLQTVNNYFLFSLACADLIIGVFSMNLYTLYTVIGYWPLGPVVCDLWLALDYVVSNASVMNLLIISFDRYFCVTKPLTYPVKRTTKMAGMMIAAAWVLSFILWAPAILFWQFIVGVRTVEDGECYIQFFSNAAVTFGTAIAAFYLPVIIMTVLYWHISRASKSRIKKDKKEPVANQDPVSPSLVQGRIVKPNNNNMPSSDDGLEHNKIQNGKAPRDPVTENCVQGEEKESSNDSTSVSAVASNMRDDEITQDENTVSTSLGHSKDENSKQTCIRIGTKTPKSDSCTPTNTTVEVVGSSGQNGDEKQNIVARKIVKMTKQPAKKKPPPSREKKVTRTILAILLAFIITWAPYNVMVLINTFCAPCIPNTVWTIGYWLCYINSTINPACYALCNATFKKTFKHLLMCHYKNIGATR
Experiment: Functional M2-GIRK1/4 activation test: allosteric potency (EC50) and efficiency at EC20 acetylcholine
Assay type: cell-based
Settings: CHO-DUKX-M2-GIRK cells; for EC50: voltage-sensitive dye, acetylcholine at EC20, in some cases mean of two or more determinations; for Emax: boosting of the acetylcholine effect at EC20 acetylcholine concentration
Description: The binding of orthosteric agonists (endogenous ligand: acetylcholine) to the M2 receptor leads to receptor activation or a change in conformation of the receptor in the manner of a shift in equilibrium in favour of the active receptor conformation.
The agonist-induced change in conformation of the M2 receptor results in a Gαi protein activation. […] Under physiological conditions, the result is then a selective efflux of potassium from the cell along the electrochemical gradient. […] The extent of hyperpolarization can therefore be regarded as a measure of the activation of the M2 receptor.
The test cell used is a recombinant CHO-DUKX cell line which has been stably transfected with cDNA coding for the human M2 receptor and with cDNA coding for both GIRK1/4 subunits (CHO-DUKX-M2-GIRK). The transmembrane potential, or the relative changes in the transmembrane potential as a function of substance addition or M2 activation, is determined by means of a voltage-sensitive dye (FLIPR Membrane Potential Assay Kit Blue, Molecular Devices #R8034) and the measurement of cell fluorescence using a proprietary fluorescence imaging instrument.
The sowing medium consisted of MEM alpha medium (supplemented with 5% PCS, 2% Glutamax, no genticin).
For the particular measurement, the medium was removed and the cells were laden with the volt-age-sensitive dye for at least 6 min at room temperature (30 μl of loading buffer per 384-well). This was followed, in a first measurement, by the determination of the fluorescence for the resting transmembrane potential for a period of 5 sec. Thereafter, 10 μl in each case of the test substances diluted in loading buffer were added, followed by a second measurement to determine the transmembrane potential for a period of 50 sec in 1 sec increments. Finally, the cells were admixed with 10 μl of agonist solution (acetylcholine dissolved in loading buffer). Acetylcholine was used at the concentration corresponding to the EC20, which had been determined in a preliminary test. The M2-mediated GIRK1/4 activation or hyperpolarization was then monitored in a third measurement over a period of 60 sec. The EC50 value (degree of allosteric potency of test compound) and the efficiency (measure of the boosting of the acetylcholine effect at an EC20 acetylcholine concentration) were determined with the aid of a 4-parameter logistic function (Hill function).

Row | Structure (SMILES) | EC50 | Emax
1 | CC(NC(=O)c1cn(-c2ncc(F)cc2F)c2nc(N3C[C@@H](O)[C@H](O)C3)c(F)cc2c1=O)C(F)(F)C(F)(F)F (mixture of isomers) [Example 39, 1-(3,5-difluoropyridin-2-yl)-7-[(3R,4R)-3,4-dihydroxypyrrolidin-1-yl]-6-fluoro-4-oxo-N-[(2)-3,3,4,4,4-pentafluorobutan-2-yl]-1,4-dihydro-1,8-naphthyridine-3-carboxamide] | 0.0205 µM | 100%
2 | CCC(NC(=O)c1cn(-c2c(F)cc(F)cc2F)c2nc(N3C[C@@H](O)[C@H](O)C3)c(Br)cc2c1=O)C(F)(F)C(F)(F)F (mixture of isomers) [Example 157, 6-Bromo-7-[(3R,4R)-3,4-dihydroxypyrrolidin-1-yl]-4-oxo-N-[1,1,1,2,2-pentafluoropentan-3-yl]-1-(2,4,6-trifluorophenyl)-1,4-dihydro-1,8-naphthyridine-3-carboxamide] | 0.0026 µM | 100%
3 | CC(NC(=O)c1cn(-c2c(F)cc(F)cc2F)c2nc(N3C[C@@H](O)[C@H](O)C3)c(F)cc2c1=O)C(F)(F)C(F)(F)F (mixture of isomers) [Example 8, 7-[(3R,4R)-3,4-Dihydroxypyrrolidin-1-yl]-6-fluoro-4-oxo-N-[3,3,4,4,4-pentafluorobutan-2-yl]-1-(2,4,6-trifluorophenyl)-1,4-dihydro-1,8-naphthyridine-3-carboxamide] |  | 96%
4 | CCC(NC(=O)c1cn(-c2c(F)cc(F)cc2F)c2nc(N3C[C@@H](O)[C@H](O)C3)c(F)cc2c1=O)C(C)C (mixture of isomers) [Example 28, 7-[(3R,4R)-3,4-Dihydroxypyrrolidin-1-yl]-6-fluoro-N-(2-methylpentan-3-yl)-4-oxo-1-(2,4,6-trifluorophenyl)-1,4-dihydro-1,8-naphthyridine-3-carboxamide] | 0.00315 µM | 100%
5 | CC(NC(=O)c1cn(-c2c(F)cc(F)cc2F)c2nc(N3C[C@@H](O)[C@@H](O)C3)c(F)cc2c1=O)C(F)(F)C(F)(F)F (mixture of isomers) [Example 92, 7-[(3R,4S)-3,4-Dihydroxypyrrolidin-1-yl]-6-fluoro-4-oxo-N-[3,3,4,4,4-pentafluorobutan-2-yl]-1-(2,4,6-trifluorophenyl)-1,4-dihydro-1,8-naphthyridine-3-carboxamide] |  | 100%
6 | CCC(COC(F)(F)F)NC(=O)c1cn(-c2c(F)cc(F)cc2F)c2nc(N3C[C@@H](O)[C@@H](O)C3)c(F)cc2c1=O (mixture of isomers) [Example 95, 7-[(3R,4S)-3,4-Dihydroxypyrrolidin-1-yl]-6-fluoro-4-oxo-N-[1-(trifluoromethoxy)butan-2-yl]-1-(2,4,6-trifluorophenyl)-1,4-dihydro-1,8-naphthyridine-3-carboxamide] | 0.0155 µM | 100%
7 | CCC(NC(=O)c1cn(-c2c(F)cc(F)cc2F)c2nc(N3C[C@@H](O)[C@@H](O)C3)c(F)cc2c1=O)C(C)C (mixture of isomers) [Example 104, 7-[(3R,4S)-3,4-Dihydroxypyrrolidin-1-yl]-6-fluoro-N-[2-methylpentan-3-yl]-6-fluoro-4-oxo-1-(2,4,6-trifluorophenyl)-1,4-dihydro-1,8-naphthyridine-3-carboxamide] | 0.013 µM | 97%
8 | CCC(COC(F)(F)F)NC(=O)c1cn(-c2c(F)cc(F)cc2F)c2nc(N3CC[C@H](O)C3)c(F)cc2c1=O (mixture of isomers) [Example 109, 6-Fluoro-7-[(3S)-3-hydroxypyrrolidin-1-yl]-4-oxo-N-[1-(trifluoromethoxy)butan-2-yl]-1-(2,4,6-trifluorophenyl)-1,4-dihydro-1,8-naphthyridine-3-carboxamide] | 0.0077 µM | 100%
9 | CCC(NC(=O)c1cn(-c2c(F)cc(F)cc2F)c2nc(N3CC[C@H](O)C3)c(F)cc2c1=O)C(C)C (mixture of isomers) [Example 116, 6-Fluoro-7-[(3S)-3-hydroxypyrrolidin-1-yl]-N-[2-methylpentan-3-yl]-4-oxo-1-(2,4,6-trifluoro-phenyl)-1,4-dihydro-1,8-naphthyridine-3-carboxamide] | 0.0035 µM | 97%
10 | CC(C)C(NC(=O)c1cn(-c2c(F)cc(F)cc2F)c2nc(N3C[C@@H](O)[C@@H](O)C3)c(F)cc2c1=O)C(F)(F)F (mixture of isomers) [Example 123, 7-[(3R,4S)-3,4-Dihydroxypyrrolidin-1-yl]-6-fluoro-4-oxo-N-[1,1,1-trifluoro-3-methylbutan-2-yl]-1-(2,4,6-trifluorophenyl)-1,4-dihydro-1,8-naphthyridine-3-carboxamide] | 0.0031 µM | 100%
11 | CC(C)C(NC(=O)c1cn(-c2c(F)cc(F)cc2F)c2nc(N3CC[C@H](O)C3)c(F)cc2c1=O)C(F)(F)F (mixture of isomers) [Example 126, 6-Fluoro-7-[(3S)-3-hydroxypyrrolidin-1-yl]-4-oxo-N-[1,1,1-trifluoro-3-methylbutan-2-yl]-1-(2,4,6-trifluorophenyl)-1,4-dihydro-1,8-naphthyridine-3-carboxamide] | 0.0039 µM | 97%
12 | CC(NC(=O)c1cn(-c2ncc(F)cc2F)c2nc(N3CC[C@H](O)C3)c(F)cc2c1=O)C(F)(F)C(F)(F)F (mixture of isomers) [Example 127, 1-(3,5-Difluoropyridin-2-yl)-6-fluoro-7-[(3S)-3-hydroxypyrrolidin-1-yl]-4-oxo-N-[3,3,4,4,4-pentafluorobutan-2-yl]-1,4-dihydro-1,8-naphthyridine-3-carboxamide] | 0.013 µM | 92%
13 | O=C(NC(c1ccccc1Cl)C(F)(F)F)c1cn(-c2c(F)cc(F)cc2F)c2nc(N3C[C@@H](O)[C@H](O)C3)c(F)cc2c1=O (mixture of isomers) [Example 131, N-[1-(2-Chlorophenyl)-2,2,2-trifluoroethyl]-7-[(3R,4R)-3,4-dihydroxypyrrolidin-1-yl]-6-fluoro-4-oxo-1-(2,4,6-trifluorophenyl)-1,4-dihydro-1,8-naphthyridine-3-carboxamide] | 0.0046 µM | 100%
14 | O=C(NC(c1ccccc1Cl)C(F)(F)F)c1cn(-c2ccc(F)cc2F)c2ncc(Cl)cc2c1=O (racemic) [Example 134, 6-Chloro-N-[1-(2-chlorophenyl)-2,2,2-trifluoroethyl]-1-(2,4-difluorophenyl)-4-oxo-1,4-dihydro-1,8-naphthyridine-3-carboxamide] | 1.83 µM | 55%
15 | CC(COC(F)(F)F)NC(=O)c1cn(-c2ccc(F)cc2F)c2ncc(Cl)cc2c1=O (racemic) [Example 135, 6-Chloro-1-(2,4-difluorophenyl)-4-oxo-N-[1-(trifluoromethoxy)propan-2-yl]-1,4-dihydro-1,8-naphthyridine-3-carboxamide] | 2.61 µM | 75%
16 | CC(NC(=O)c1cn(-c2c(F)cc(F)cc2F)c2nc(N3CCOCC3)c(F)cc2c1=O)C(F)(F)C(F)(F)F (racemic) [Example 146, 6-Fluoro-7-(morpholin-4-yl)-4-oxo-N-[3,3,4,4,4-pentafluorobutan-2-yl]-1-(2,4,6-trifluoro-phenyl)-1,4-dihydro-1,8-naphthyridine-3-carboxamide] | 0.012 µM | 100%
17 | CCC(NC(=O)c1cn(-c2c(F)cc(F)cc2F)c2nc(N3CCOCC3)c(F)cc2c1=O)C(F)(F)C(F)(F)F (racemic) [Example 148, 6-Fluoro-7-(morpholin-4-yl)-4-oxo-N-[1,1,1,2,2-pentafluoropentan-3-yl]-1-(2,4,6-trifluoro-phenyl)-1,4-dihydro-1,8-naphthyridine-3-carboxamide] | 0.0187 µM | 96%
